What all share (test): biotin probe pull-down on streptavidin beads, Western blot
Assay type in all cases: biochemical
Holding throughout (details): lysate of transfected SH-SY5Y cells; labelled compound
(Immunoblotting shows a protein as a band on a membrane.)

In experiment [1] the target is T1, flag-tagged wild type INTS1 (INTS1-WT-flag) (Homo sapiens, UniProt Q8N201).
T1 construct: full-length cDNA (synthesized) in pcDNA3.1(+), C-terminal 3xFLAG, transiently expressed in SH-SY5Y cells, cell lysate
T1 sequence (Q8N201 whole entry): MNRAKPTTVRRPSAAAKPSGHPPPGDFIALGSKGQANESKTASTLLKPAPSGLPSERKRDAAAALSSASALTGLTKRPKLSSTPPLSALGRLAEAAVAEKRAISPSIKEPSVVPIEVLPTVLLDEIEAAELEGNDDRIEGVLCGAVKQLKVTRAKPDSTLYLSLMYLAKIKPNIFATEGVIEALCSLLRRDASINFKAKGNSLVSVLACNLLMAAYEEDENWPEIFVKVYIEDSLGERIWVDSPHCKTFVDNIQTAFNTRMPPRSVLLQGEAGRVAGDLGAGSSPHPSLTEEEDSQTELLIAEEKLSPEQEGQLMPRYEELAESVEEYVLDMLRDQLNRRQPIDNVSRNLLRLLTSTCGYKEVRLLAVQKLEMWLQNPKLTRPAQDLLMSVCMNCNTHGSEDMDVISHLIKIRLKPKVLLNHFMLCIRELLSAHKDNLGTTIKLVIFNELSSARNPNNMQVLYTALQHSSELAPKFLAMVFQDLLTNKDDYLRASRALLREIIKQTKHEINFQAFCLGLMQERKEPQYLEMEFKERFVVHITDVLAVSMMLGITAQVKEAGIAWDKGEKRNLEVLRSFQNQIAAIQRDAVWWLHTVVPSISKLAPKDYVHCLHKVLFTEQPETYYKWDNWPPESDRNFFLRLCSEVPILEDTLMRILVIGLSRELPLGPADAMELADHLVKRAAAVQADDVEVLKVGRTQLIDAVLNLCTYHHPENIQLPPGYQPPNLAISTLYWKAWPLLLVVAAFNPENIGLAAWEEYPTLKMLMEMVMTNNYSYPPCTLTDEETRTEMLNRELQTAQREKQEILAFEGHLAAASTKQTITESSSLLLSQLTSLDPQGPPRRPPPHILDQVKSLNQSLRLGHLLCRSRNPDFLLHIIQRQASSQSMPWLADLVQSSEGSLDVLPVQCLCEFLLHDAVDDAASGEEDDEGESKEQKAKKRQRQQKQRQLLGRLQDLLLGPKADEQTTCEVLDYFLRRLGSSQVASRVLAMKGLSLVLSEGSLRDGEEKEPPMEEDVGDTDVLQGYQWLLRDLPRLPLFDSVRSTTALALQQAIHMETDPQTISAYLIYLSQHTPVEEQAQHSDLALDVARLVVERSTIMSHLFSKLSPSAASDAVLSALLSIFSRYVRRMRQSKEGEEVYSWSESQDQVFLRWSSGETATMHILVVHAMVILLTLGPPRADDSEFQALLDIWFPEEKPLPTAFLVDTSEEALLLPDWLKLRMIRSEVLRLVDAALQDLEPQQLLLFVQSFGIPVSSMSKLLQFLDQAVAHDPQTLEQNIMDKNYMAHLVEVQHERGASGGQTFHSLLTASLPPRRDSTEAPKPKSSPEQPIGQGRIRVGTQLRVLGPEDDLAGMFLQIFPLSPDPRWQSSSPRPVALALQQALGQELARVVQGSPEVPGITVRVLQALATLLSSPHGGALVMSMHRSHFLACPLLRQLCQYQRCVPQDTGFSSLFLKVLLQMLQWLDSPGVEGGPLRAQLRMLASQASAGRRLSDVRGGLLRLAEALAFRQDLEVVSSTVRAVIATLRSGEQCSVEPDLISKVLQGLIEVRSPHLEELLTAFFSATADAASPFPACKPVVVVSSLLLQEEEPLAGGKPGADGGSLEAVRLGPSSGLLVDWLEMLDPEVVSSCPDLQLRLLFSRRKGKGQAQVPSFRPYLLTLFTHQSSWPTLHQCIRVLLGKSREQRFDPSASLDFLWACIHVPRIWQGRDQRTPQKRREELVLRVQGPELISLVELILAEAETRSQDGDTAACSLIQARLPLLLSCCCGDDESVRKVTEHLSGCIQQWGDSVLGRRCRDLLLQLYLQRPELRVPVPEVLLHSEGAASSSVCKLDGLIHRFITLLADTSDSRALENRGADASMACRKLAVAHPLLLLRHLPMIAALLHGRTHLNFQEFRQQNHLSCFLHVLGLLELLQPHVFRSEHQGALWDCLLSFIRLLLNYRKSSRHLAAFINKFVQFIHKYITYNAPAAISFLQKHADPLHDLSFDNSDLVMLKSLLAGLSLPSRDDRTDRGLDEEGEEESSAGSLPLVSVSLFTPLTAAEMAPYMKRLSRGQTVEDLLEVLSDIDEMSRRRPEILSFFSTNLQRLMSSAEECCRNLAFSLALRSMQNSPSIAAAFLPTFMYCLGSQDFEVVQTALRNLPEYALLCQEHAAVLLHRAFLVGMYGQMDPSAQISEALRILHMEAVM

Experiment [2] has as its target T2, (Homo sapiens, UniProt Q8N201, R1404L).
T2 construct: gene INTS1; full-length cDNA (synthesized) in pcDNA3.1(+), C-terminal 3xFLAG, transiently expressed in SH-SY5Y cells, cell lysate

The target of another experiment is T3, flag-tagged INTS1 (Homo sapiens, UniProt Q8N201, R1404K).
T3 construct: full-length cDNA (synthesized) in pcDNA3.1(+), C-terminal 3xFLAG, transiently expressed in SH-SY5Y cells, cell lysate
T3 sequence (Q8N201 whole entry R1404K): as the sequence (Q8N201 whole entry) above, with R1404K counted along it

Experiment [3] addresses T4, (Homo sapiens, UniProt Q8N201, R1404A).
T4 construct: gene INTS1; full-length cDNA (synthesized) in pcDNA3.1(+), C-terminal 3xFLAG, transiently expressed in SH-SY5Y cells, cell lysate

T4 sequence (Q8N201 whole entry R1404A): as the sequence (Q8N201 whole entry) above, with R1404A counted along it
T2 sequence (Q8N201 whole entry R1404L): as the sequence (Q8N201 whole entry) above, with R1404L counted along it

Regarding `N#Cc1c(NC(=O)CN2CCN(C(=O)CCCC[C@H]3SC[C@@H]4NC(=O)N[C@@H]43)CC2)sc2c1CCCC2` [CN-0928-biotin, N-(3-cyano-4,5,6,7-tetrahydrobenzo[b]thiophen-2-yl)-2-(4-(5-((3aS,4R,6aR)-2-oxohexahydro-1H-thieno[3,4-d]imidazol-4-yl)pentanoyl)piperazin-1-yl)acetamide], the “biotin probe pull-down on streptavidin beads, Western blot” value in experiment [1] was “CN-0928-biotin pulldown of flag-tagged wild type (INTS1-WT-flag)”. Further, the pulldown result is “(R1404A, R1404L, and R1404K) prevented the binding of CN-0928-biotin to flag-labeled INTS1” in experiment [2]; “(R1404A, R1404L, and R1404K) prevented the binding of CN-0928-biotin to flag-labeled INTS1” on flag-tagged INTS1; “(R1404A, R1404L, and R1404K) prevented the binding of CN-0928-biotin to flag-labeled INTS1” in experiment [3].

The values above are taken from article PMC12658114, “Pharmacologic inhibition of PCBP2 biomolecular condensates relieves Alzheimer’s disease” (Nature Communications, 2025).
